Test results reported in ChEMBL document CHEMBL1130164 (J Med Chem, 1997).

Assays:
[1] = target: cAMP-dependent protein kinase catalytic subunit alpha (Homo sapiens, UniProt P17612); assay: Inhibitory concentration against recombinant human cAMP-dependent Protein kinase A
[2] = target: T1, Protein kinase C beta type (Homo sapiens, UniProt P05771); assay: Inhibitory concentration against recombinant human Protein kinase C beta 1 isozyme
[3] = target: T1, Protein kinase C beta type; assay: Inhibitory concentration against recombinant human Protein kinase C beta 2 isozyme
[4] = target: Protein kinase C alpha type (Homo sapiens, UniProt P17252); assay: Inhibitory concentration against recombinant human Protein kinase C alpha isozyme
[5] = target: T2, Protein kinase C epsilon type (Homo sapiens, UniProt Q02156); assay: Inhibitory concentration against recombinant human Protein kinase C epsilon isozyme
T2 sequence (Q02156 whole entry): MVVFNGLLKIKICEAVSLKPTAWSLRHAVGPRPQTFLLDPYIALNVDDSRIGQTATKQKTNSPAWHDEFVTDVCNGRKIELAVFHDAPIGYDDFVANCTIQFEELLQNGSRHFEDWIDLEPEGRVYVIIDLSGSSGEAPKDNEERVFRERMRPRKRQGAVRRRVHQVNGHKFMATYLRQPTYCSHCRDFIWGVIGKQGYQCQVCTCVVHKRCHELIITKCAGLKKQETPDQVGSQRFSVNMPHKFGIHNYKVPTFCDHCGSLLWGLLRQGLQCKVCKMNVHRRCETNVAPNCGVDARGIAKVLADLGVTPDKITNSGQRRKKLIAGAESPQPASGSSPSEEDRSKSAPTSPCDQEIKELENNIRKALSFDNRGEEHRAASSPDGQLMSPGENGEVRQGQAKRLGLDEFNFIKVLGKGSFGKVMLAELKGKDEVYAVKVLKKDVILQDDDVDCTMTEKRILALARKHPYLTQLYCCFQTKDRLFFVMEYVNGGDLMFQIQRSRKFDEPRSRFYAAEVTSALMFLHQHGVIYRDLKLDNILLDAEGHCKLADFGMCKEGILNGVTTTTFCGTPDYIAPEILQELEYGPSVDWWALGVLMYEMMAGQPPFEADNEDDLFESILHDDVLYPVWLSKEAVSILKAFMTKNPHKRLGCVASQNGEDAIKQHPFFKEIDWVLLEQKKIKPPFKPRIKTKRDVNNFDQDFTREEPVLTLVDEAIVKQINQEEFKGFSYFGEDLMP

[6] = target: Protein kinase C gamma type (Homo sapiens, UniProt P05129); assay: Inhibitory concentration against recombinant human Protein kinase C gamma isozyme
[7] = target: Protein kinase C eta type (Homo sapiens, UniProt P24723); assay: Inhibitory concentration against recombinant human Protein kinase C eta isozyme
[8] = target: T3, Protein kinase C zeta type (Homo sapiens, UniProt Q05513); assay: Inhibitory concentration against recombinant human Protein kinase C zeta isozyme
T3 sequence (Q05513 whole entry): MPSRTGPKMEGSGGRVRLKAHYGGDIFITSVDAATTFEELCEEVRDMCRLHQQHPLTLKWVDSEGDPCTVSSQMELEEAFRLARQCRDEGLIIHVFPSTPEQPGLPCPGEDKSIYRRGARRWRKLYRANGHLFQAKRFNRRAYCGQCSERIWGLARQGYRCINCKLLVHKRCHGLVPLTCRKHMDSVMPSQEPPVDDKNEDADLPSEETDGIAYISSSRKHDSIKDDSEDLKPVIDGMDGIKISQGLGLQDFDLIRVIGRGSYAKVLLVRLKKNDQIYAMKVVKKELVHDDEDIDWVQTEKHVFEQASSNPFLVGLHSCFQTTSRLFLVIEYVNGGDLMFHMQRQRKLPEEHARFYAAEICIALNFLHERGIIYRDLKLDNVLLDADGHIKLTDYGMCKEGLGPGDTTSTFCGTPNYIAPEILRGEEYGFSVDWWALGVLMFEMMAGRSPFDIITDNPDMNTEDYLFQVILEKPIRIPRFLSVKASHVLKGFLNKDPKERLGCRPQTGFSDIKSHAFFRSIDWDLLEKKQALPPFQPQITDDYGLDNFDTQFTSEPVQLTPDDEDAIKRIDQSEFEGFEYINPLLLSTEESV

[9] = target: Protein kinase C delta type (Homo sapiens, UniProt Q05655); assay: Inhibitory concentration against recombinant human Protein kinase C delta isozyme
Chain of Protein kinase C delta type (Q05655 whole entry): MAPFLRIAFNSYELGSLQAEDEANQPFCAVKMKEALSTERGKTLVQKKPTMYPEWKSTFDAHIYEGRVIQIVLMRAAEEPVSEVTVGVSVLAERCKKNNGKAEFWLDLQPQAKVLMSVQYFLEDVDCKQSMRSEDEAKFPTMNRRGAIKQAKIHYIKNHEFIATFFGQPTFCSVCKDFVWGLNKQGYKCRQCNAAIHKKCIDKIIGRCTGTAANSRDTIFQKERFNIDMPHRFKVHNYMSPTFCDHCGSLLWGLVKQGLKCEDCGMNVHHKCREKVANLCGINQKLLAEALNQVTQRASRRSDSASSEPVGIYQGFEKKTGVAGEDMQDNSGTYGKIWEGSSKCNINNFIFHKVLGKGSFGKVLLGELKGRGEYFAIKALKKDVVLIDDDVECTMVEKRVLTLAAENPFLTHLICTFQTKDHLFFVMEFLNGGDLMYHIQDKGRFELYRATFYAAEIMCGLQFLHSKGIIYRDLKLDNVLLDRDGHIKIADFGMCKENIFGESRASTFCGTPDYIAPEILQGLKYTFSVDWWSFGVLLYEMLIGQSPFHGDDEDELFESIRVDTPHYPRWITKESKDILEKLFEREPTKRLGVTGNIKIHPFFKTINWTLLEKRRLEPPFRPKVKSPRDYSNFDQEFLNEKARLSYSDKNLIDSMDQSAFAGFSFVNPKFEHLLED

T1 sequence (P05771 whole entry): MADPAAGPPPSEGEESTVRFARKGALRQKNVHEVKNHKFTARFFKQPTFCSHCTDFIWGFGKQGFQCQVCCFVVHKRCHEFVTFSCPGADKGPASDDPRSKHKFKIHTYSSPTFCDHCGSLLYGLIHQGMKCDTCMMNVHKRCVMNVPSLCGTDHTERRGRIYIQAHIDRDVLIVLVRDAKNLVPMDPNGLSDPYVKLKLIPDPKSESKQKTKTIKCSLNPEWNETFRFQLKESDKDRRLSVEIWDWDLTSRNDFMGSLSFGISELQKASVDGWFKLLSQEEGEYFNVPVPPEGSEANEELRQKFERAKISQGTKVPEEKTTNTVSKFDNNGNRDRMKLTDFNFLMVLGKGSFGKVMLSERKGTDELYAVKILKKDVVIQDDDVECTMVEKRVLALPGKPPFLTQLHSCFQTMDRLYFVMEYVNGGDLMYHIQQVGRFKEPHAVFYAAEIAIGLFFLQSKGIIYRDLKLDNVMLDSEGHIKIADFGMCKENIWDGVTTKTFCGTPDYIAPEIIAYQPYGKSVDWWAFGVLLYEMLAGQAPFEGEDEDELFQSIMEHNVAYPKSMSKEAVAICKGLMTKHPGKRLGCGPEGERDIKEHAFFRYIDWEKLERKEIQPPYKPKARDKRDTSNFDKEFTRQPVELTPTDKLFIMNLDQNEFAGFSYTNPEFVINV
Chain of Protein kinase C eta type (P24723 whole entry): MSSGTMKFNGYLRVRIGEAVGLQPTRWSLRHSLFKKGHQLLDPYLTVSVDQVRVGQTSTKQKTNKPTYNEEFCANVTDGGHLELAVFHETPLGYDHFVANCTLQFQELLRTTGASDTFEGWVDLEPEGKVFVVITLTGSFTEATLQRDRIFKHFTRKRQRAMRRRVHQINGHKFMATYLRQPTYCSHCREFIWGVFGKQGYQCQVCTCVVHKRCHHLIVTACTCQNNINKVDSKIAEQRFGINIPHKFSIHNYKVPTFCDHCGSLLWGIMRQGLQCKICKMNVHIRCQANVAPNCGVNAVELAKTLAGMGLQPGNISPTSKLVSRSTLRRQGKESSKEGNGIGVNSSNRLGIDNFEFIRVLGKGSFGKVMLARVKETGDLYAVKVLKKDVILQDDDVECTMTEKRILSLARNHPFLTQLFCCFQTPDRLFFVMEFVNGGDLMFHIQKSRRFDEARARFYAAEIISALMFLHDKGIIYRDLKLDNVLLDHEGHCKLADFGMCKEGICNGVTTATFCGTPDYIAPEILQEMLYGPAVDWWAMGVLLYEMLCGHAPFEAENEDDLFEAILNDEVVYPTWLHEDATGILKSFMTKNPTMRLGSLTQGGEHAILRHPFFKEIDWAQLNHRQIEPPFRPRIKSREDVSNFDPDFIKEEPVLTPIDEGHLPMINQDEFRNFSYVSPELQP

Structure (SMILES) | IC50 [1] [nM] | IC50 [2] [nM] | IC50 [3] [nM] | IC50 [4] [nM] | IC50 [5] [nM] | IC50 [6] [nM] | IC50 [7] [nM] | IC50 [8] [nM] | IC50 [9] [nM]
O=C(N[C@@H]1C2CC(C3CCCC32)[C@H]1OC(=O)c1cc(O)c(C(=O)c2c(O)cccc2C(=O)O)c(O)c1)c1ccc(O)cc1 (stereo partly drawn) | 32000 | – | – | – | – | – | – | – | –
O=C(N[C@@H]1CCCCC[C@H]1OC(=O)c1cc(O)c(C(=O)c2c(O)cccc2C(=O)O)c(O)c1)c1ccc(O)cc1 | 1400 | – | – | – | – | – | – | – | –
O=C(N[C@@H]1CS(=O)(=O)CCC[C@H]1OC(=O)c1cc(O)c(C(=O)c2c(O)cccc2C(=O)O)c(O)c1)c1ccc(O)cc1 | 38000 | 5200 | 3600 | 9600 | 45000 | 4300 | 800 | > 150000 | 4000
O=C(N[C@@H]1COCCC[C@H]1OC(=O)c1cc(O)c(C(=O)c2c(O)cccc2C(=O)O)c(O)c1)c1ccc(O)cc1 | 450 | 2500 | 3300 | 6700 | 16000 | 1000 | 10 | > 150000 | 90
O=C(N[C@@H]1CC(O)C[C@H]1OC(=O)c1cc(O)c(C(=O)c2c(O)cccc2C(=O)O)c(O)c1)c1ccc(O)cc1 (stereo partly drawn) | 130 | 20 | 10 | 40 | 100 | 20 | 3 | – | 5
CS(=O)(=O)N1C[C@@H](NC(=O)c2ccc(O)cc2)[C@H](OC(=O)c2cc(O)c(C(=O)c3c(O)cccc3C(=O)O)c(O)c2)C1 | 4500 | 330 | 350 | 910 | 1300 | 400 | 62 | > 150000 | 35
CN1C2CCC1C(NC(=O)c1ccc(O)cc1)C(OC(=O)c1cc(O)c(C(=O)c3c(O)cccc3C(=O)O)c(O)c1)C2 (stereo not drawn) | > 50000 | – | – | – | – | – | – | – | –
NC[C@H]1C[C@@H](NC(=O)c2ccc(O)cc2)[C@H](OC(=O)c2cc(O)c(C(=O)c3c(O)cccc3C(=O)O)c(O)c2)C1 | 170 | 4 | 4 | 20 | 30 | 5 | 3 | 2800 | 6
NC[C@@H]1C[C@@H](NC(=O)c2ccc(O)cc2)[C@H](OC(=O)c2cc(O)c(C(=O)c3c(O)cccc3C(=O)O)c(O)c2)C1 | 90 | 5 | 5 | 20 | 30 | 10 | 3 | 3100 | 20
O=C(N[C@@H]1C[C@@H](O)C[C@H]1OC(=O)c1cc(O)c(C(=O)c2c(O)cccc2C(=O)O)c(O)c1)c1ccc(O)cc1 | 250 | 30 | 20 | 50 | 150 | 30 | 4 | – | 6
CC1(C)C2CCC1(C)[C@@H](OC(=O)c1cc(O)c(C(=O)c3c(O)cccc3C(=O)O)c(O)c1)[C@@H]2NC(=O)c1ccc(O)cc1 (stereo partly drawn) | 26000 | 310 | 80 | 410 | 3600 | 210 | 310 | > 50000 | 340
CNC(=O)N1C[C@@H](NC(=O)c2ccc(O)cc2)[C@H](OC(=O)c2cc(O)c(C(=O)c3c(O)cccc3C(=O)O)c(O)c2)C1 | 3000 | 680 | 1800 | 2200 | 3600 | 410 | 130 | > 50000 | 40
N[C@@H]1C[C@@H](NC(=O)c2ccc(O)cc2)[C@H](OC(=O)c2cc(O)c(C(=O)c3c(O)cccc3C(=O)O)c(O)c2)C1 | 50 | 4 | 2 | 20 | 10 | 5 | 3 | 1200 | 5
CC(=O)N1C[C@@H](NC(=O)c2ccc(O)cc2)[C@H](OC(=O)c2cc(O)c(C(=O)c3c(O)cccc3C(=O)O)c(O)c2)C1 | 3600 | 710 | 820 | 1200 | 3700 | 390 | 30 | > 150000 | 60
O=C(N[C@@H]1CNC[C@H]1OC(=O)c1cc(O)c(C(=O)c2c(O)cccc2C(=O)O)c(O)c1)c1ccc(O)cc1 | 70 | – | – | – | – | – | – | – | –
O=C(N[C@@H]1CNCC[C@H]1OC(=O)c1cc(O)c(C(=O)c2c(O)cccc2C(=O)O)c(O)c1)c1ccc(O)cc1 | 350 | – | – | – | – | – | 90 | – | –
O=C(N[C@@H]1C[C@@H](CO)C[C@H]1OC(=O)c1cc(O)c(C(=O)c2c(O)cccc2C(=O)O)c(O)c1)c1ccc(O)cc1 | 220 | 60 | 20 | 80 | 270 | 50 | 20 | – | 20
O=C(N[C@@H]1C[C@H](CO)C[C@H]1OC(=O)c1cc(O)c(C(=O)c2c(O)cccc2C(=O)O)c(O)c1)c1ccc(O)cc1 | 230 | 4 | 3 | 10 | 160 | 5 | 2 | – | 4
O=C(N[C@@H]1CSCCC[C@H]1OC(=O)c1cc(O)c(C(=O)c2c(O)cccc2C(=O)O)c(O)c1)c1ccc(O)cc1 | 7500 | 3800 | 2400 | 3300 | 5900 | 1000 | 100 | – | 90
CC(C)N1C[C@@H](NC(=O)c2ccc(O)cc2)[C@H](OC(=O)c2cc(O)c(C(=O)c3c(O)cccc3C(=O)O)c(O)c2)C1 | < 330 | 60 | 70 | 240 | 50 | 90 | 4 | – | 40
COC(=O)N1C[C@@H](NC(=O)c2ccc(O)cc2)[C@H](OC(=O)c2cc(O)c(C(=O)c3c(O)cccc3C(=O)O)c(O)c2)C1 | 13000 | 810 | 2700 | 540 | 4800 | 540 | 90 | > 150000 | 100
O=C(N[C@H]1CNCCC[C@@H]1OC(=O)c1cc(O)c(C(=O)c2c(O)cccc2C(=O)O)c(O)c1)c1ccc(O)cc1 | – | 500 | 880 | 3000 | – | 400 | 260 | > 150000 | 420
O=C(N[C@@H]1CN2CCC(CC2)[C@H]1OC(=O)c1cc(O)c(C(=O)c2c(O)cccc2C(=O)O)c(O)c1)c1ccc(O)cc1 | 1700 | 26 | 69 | 410 | 170 | 140 | 26 | – | 110
O=C(N[C@@H]1C2CCC(C2)[C@H]1OC(=O)c1cc(O)c(C(=O)c2c(O)cccc2C(=O)O)c(O)c1)c1ccc(O)cc1 (stereo partly drawn) | 1900 | 50 | 30 | 60 | 30 | 40 | 20 | – | 20
O=C(NC1CNCCCC1OC(=O)c1cc(O)c(C(=O)c2c(O)cccc2C(=O)O)c(O)c1)c1ccc(O)cc1 (racemic) | – | – | – | 70 | – | – | – | 3500 | 20
O=C(N[C@@H]1CNCCC[C@H]1OC(=O)c1cc(O)c(C(=O)c2c(O)cccc2C(=O)O)c(O)c1)c1ccc(O)cc1 [BALANOL] | – | – | – | – | – | 20 | – | 7400 | 4
